Inhibition and Kd data for 35 molecules are collected here from patent US20240343747A1, “Heteroaryl compounds as inhibitors of TYK2, composition and application thereof” (Accro Bioscience (HK) Limited, priority 2021, published 2024).

The target of one assay is TYK2 (Mus musculus (Mouse), UniProt Q9R117). The assay can be described thus: Luciferase assay in L929 ISRE cells stimulated with IFN-α. As to conditions: IFN-α 100 ng/mL; for inhibition at 0.01 µM: 10 nM, read-out: Inhibitory activity % (10 nM); for inhibition at 0.1 µM: 100 nM, read-out: Inhibitory activity % (100 nM); for inhibition at 1 µM: 1000 nM, read-out: Inhibitory activity % (1000 nM); for inhibition at 0.05 µM: 50 nM, read-out: Inhibitory activity % (50 nM); for inhibition at 0.2 µM: 200 nM, read-out: Inhibitory activity % (200 nM). It is filed as cell-based. The procedure:
• 1. L929 ISRE cells (5000 cells/well) were seeded on 96-well plates and incubated overnight at room temperature; • 2. The cells were pretreated by adding different concentrations (10 nM, 50 nM, 100 nM, 200 nM or 1000 nM) of the test compounds for 2 hours; • 3. Added IFN-α (100 ng/mL) to stimulate cells for 6 hours; • 4. Removed the upper medium, add PBS (100 μL) and washed, then removed PBS; • 5. Added PLB lysis solution (50 μL) to each well, shook the well for 15 minutes; • 6. Transferred PLB lysis solution (30 μL) to a new 96-well whiteboard, added LAR II reagent (LAR II), then quickly read the […]; • 7. Added Stop & Glo reagent (30 μL), then read the 450 nm OD value using the plate washer. • 8. The final results in Table 3 were the OD value in step 6/OD value in step 7.

In the next assay the target is TYK2 JH2 (Homo sapiens (Human), UniProt P29597). Description: Competitive binding assay (kinase-tagged phage, qPCR), TYK2 JH2. Here is the method: For most assays, kinase-tagged T7 phage strains were prepared in an E. coli host derived from the BL21 strain. E. coli were grown to log-phase and infected with T7 phage and incubated with shaking at 32° C. until lysis. The lysates were centrifuged and filtered to remove cell debris. The remaining kinases were produced in HEK-293 cells and subsequently tagged with DNA for qPCR detection. Streptavidin coated magnetic beads were treated with biotinylated small molecule ligands for 30 minutes at room temperature to generate affinity resins for kinase assays. The liganded beads were blocked with excess biotin and washed with blocking buffer (SeaBlock (Pierce), 1% BSA, 0.05% Tween 20, 1 mM DTT) to remove unbound ligand and to reduce non-specific binding. […] Test compounds were prepared as 111X stocks in 100% DMSO. Dissociation constants (Kds) were determined using an 11-point 3-fold compound dilution series with three DMSO control points. All compounds for Kd measurements are distributed by acoustic transfer (non-contact dispensing) in 100% DMSO. The compounds were then diluted directly into the assays such that the final concentration of DMSO was 0.9%. All reactions performed in polypropylene 384-well plate. Each was a final volume of 0.02 ml. The assay plates were incubated at room temperature with shaking for 1 hour and the affinity beads were washed with wash buffer (1×PBS, 0.05% Tween 20). The beads were then re-suspended in elution buffer (1×PBS, 0.05% Tween 20, 0.5 μM nonbiotinylated affinity ligand) and incubated at room temperature with shaking for 30 minutes. The kinase concentration in the eluates was measured by qPCR.
Chain of TYK2 JH2 (P29597 589-875): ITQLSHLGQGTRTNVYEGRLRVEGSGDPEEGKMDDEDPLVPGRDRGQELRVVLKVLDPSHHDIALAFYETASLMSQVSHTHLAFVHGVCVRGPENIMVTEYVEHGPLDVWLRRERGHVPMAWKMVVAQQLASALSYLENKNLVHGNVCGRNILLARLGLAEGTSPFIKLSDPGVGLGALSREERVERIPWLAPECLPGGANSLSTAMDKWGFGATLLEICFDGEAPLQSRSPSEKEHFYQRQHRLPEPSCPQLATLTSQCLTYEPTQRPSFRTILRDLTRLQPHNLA
An 11-point 3-fold serial dilution of each test compound was prepared in 100% DMSO at 100× final test concentration and subsequently diluted to 1× in the assay (final DMSO concentration=1%). Most Kds were determined using a compound top concentration=30,000 nM. If the initial Kd determined was <0.5 nM (the lowest concentration tested), the measurement was repeated with a serial dilution starting at a lower top concentration.
Binding constants (Kds) were calculated with a standard dose-response curve using the Hill equation: […]
The Hill Slope was set to −1.
Curves were fitted using a non-linear least square fit with the Levenberg-Marquardt algorithm.

Chain of TYK2 (Q9R117 whole entry): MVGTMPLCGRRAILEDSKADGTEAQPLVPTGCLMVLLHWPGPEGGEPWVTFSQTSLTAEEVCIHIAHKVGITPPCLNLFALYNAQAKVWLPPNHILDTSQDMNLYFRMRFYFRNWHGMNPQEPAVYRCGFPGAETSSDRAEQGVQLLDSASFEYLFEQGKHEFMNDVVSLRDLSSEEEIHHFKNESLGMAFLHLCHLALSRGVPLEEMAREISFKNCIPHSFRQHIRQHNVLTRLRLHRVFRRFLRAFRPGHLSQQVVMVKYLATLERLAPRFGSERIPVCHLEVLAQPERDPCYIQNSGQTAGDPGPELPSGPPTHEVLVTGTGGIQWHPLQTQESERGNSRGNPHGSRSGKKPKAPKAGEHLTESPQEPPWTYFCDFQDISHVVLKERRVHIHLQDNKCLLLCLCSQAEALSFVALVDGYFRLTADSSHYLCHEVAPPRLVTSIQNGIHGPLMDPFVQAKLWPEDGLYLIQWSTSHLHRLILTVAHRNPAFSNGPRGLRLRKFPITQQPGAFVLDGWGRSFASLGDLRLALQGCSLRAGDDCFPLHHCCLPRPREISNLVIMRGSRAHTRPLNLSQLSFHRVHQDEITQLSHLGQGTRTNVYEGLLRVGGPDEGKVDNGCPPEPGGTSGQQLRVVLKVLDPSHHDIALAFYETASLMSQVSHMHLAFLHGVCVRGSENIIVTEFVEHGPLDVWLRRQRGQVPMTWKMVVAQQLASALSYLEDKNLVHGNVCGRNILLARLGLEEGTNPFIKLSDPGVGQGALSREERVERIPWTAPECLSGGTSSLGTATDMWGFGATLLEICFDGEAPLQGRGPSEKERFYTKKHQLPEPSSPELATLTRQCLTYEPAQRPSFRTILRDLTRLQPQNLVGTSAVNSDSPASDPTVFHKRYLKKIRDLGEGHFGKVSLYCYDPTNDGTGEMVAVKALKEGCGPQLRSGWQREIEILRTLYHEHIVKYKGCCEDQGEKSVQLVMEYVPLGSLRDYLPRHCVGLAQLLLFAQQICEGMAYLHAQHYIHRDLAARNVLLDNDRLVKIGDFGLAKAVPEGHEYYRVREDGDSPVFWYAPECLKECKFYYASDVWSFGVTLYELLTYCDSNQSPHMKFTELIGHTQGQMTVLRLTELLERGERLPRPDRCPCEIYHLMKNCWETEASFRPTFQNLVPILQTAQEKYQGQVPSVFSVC

On to `CCC(=O)c1cnc(NC(=O)C2CC2)cc1Nc1cccc(-c2nc(P(C)(C)=O)ns2)c1OC` [Compound B1, N-(4-((3-(3-(dimethylphosphoryl)-1,2,4-thiadiazol-5-yl)-2-methoxyphenyl)amino)-5-propionylpyridin-2-yl)cyclopropanecarboxamide], for which, at TYK2, the inhibition at 0.01 µM amounted to 0%, the inhibition at 0.1 µM was 0% and the inhibition at 1 µM came out at 0%.
`CCC(=O)c1cnc(NC(=O)C2CC2)cc1Nc1cccc(-c2nc(P(C)(C)=O)cs2)c1OC` [Compound B6]: the inhibition at 1 µM at TYK2 was determined as 36%.
For `CCC(=O)c1cnc(NC(=O)C2CC2)cc1Nc1cccc(-c2cccc(P(C)(C)=O)c2)c1OC` [Compound B7], at TYK2, the inhibition at 1 µM came to 46%.
Still for that read-out and setting: then `CCC(=O)c1cnc(NC(=O)C2CC2)cc1Nc1cccc(-c2ccc(P(C)(C)=O)nn2)c1OC` [Compound B8], with 33%; and `CCC(=O)c1cnc(NC(=O)C2CC2)cc1Nc1cccc(-c2cc(P(C)(C)=O)nn2C)c1OC` [Compound B9], with 40%.
As for `CCC(=O)c1cnc(NC(=O)C2CC2)cc1Nc1cccc(-c2ccccc2P(C)(C)=O)c1OC` [Compound B10], on TYK2, the inhibition at 1 µM came to 50%.
Same read-out and setting: then `CCC(=O)c1cnc(NC(=O)C2CC2)cc1Nc1cccc(-c2cc(P(C)(C)=O)n(C)n2)c1F` [Compound B12], with 0%; and `CCC(=O)c1cnc(NC(=O)C2CC2)cc1Nc1cccc(-c2cc(P(C)(C)=O)n(C)n2)c1C` [Compound B14], with 27%.
Same read-out and setting: with `CCC(=O)c1cnc(NC(=O)C2CC2)cc1Nc1cccc(-c2cc(P(C)(C)=O)n(C)n2)c1` [Compound B15] the figure was 45%.
In the case of `CCC(=O)c1cnc(NC(=O)C2CC2)cc1Nc1cccc(-c2cc(P(C)(C)=O)n(C3CC3)n2)c1OC` [Compound B16], at TYK2, the inhibition at 0.01 µM is 35%, the inhibition at 0.1 µM was found to be 38% and the inhibition at 1 µM was determined as 55%.
Turning to `CCC(=O)c1cnc(NC(=O)C2CC2)cc1Nc1cc(F)cc(-c2cc(P(C)(C)=O)n(C)n2)c1OC` [Compound B17], on TYK2, the inhibition at 0.01 µM was found to be 25%, the inhibition at 0.1 µM stood at 45% and the inhibition at 1 µM amounted to 67%.
As for `CCC(=O)c1nnc(NC(=O)C2CC2)cc1Nc1cccc(-c2cc(P(C)(C)=O)n(C)n2)c1OC` [Compound B18, N-(5-((3-(5-(dimethylphosphoryl)-1-methyl-1H-pyrazol-3-yl)-2-methoxyphenyl)amino)-6-propionylpyridazin-3-yl)cyclopropanecarboxamide], the inhibition at 1 µM at TYK2 is 42%.
Consider `CCC(=O)c1cnc(NC(=O)C2CC2)cc1Nc1nccc(-c2cc(P(C)(C)=O)n(C)n2)c1OC` [Compound B19, N-(4-((4-(5-(dimethylphosphoryl)-1-methyl-1H-pyrazol-3-yl)-3-methoxypyridin-2-yl)amino)-5-propionylpyridin-2-yl)cyclopropanecarboxamide], for which, on TYK2, the inhibition at 0.01 µM turned out to be 41%, the inhibition at 0.1 µM was determined as 74% and the inhibition at 1 µM came to 88%. At TYK2 JH2, the Kd – broadly, a measure of binding affinity in units of concentration – worked out at 75 pM.
Regarding `CCC(=O)c1cnc(NC(=O)C2CC2)cc1Nc1cccc(-c2cc(P(C)(C)=O)n(C)n2)c1C#N` [Compound B20], on TYK2, the inhibition at 0.01 µM came out at 7%, the inhibition at 0.1 µM was determined as 8% and the inhibition at 1 µM was 20%.
On to `CCC(=O)c1cnc(NC(=O)C2CC2)cc1Nc1cccc(-c2ccc(P(C)(C)=O)nc2)c1OC` [Compound B21], for which, on TYK2, the inhibition at 0.1 µM came out at 6% and the inhibition at 1 µM amounted to 49%.
On the same counts, the results for `CCC(=O)c1cnc(NC(=O)C2CC2)cc1Nc1cc(F)cc(-c2ncc(P(C)(C)=O)cn2)c1OC` [Compound B23] are 8% and 46%.
As for `CCC(=O)c1cnc(NC(=O)C2CC2)cc1Nc1cccc(-c2cc(P(=O)(CC)CC)n(C)n2)c1OC` [Compound B24], on TYK2, the inhibition at 0.1 µM was found to be 31% and the inhibition at 1 µM came out at 93%. In addition, the affinity on TYK2 JH2, expressed as Kd, was 30 pM.
`CCC(=O)c1nnc(NC(=O)C2CC2)cc1Nc1cc(F)cc(-c2cc(P(C)(C)=O)n(C)n2)c1OC` [Compound B25]: the inhibition at 1 µM on TYK2 was 13%.
Still for that read-out and setting: then `CCC(=O)c1cnc(NC(=O)C2CC2)cc1Nc1cccc(-c2cc(P(C)(C)=O)cs2)c1OC` [Compound B27], with 38%; and `CCC(=O)c1nnc(NC(=O)C2CC2)cc1Nc1cccc(-c2ccc(P(C)(C)=O)cn2)c1OC` [Compound B28], with 35%.
As to `CCC(=O)c1cnc(NC(=O)C2CC2)cc1Nc1nccc(-c2cc(P(=O)(CC)CC)n(C)n2)c1OC` [Compound B29], the inhibition at 1 µM at TYK2 is 93%. On TYK2 JH2, this molecule returned a Kd of 10 pM.
Consider `CCC(=O)c1cnc(NC(=O)C2CC2)cc1Nc1cccc(-c2cc(P3(=O)CCCC3)n(C)n2)c1OC` [Compound B30], for which, at TYK2, the inhibition at 1 µM turned out to be 75%.
Still for that read-out and setting: with `CCC(=O)c1nnc(NC(=O)C2CC2)cc1Nc1cccc(-c2cc(P(C)(C)=O)n(CC)n2)c1OC` [Compound B31] the figure was 26%.
Consider `CCC(=O)c1cnc(NC(=O)C2CC2)cc1Nc1cc(F)cc(-c2cc(P(=O)(CC)CC)n(C)n2)c1OC` [Compound B32], for which the inhibition at 1 µM at TYK2 worked out at 88%. The Kd at TYK2 JH2 turned out to be 25 pM.
For the molecule `[2H]C([2H])([2H])n1nc(-c2ccnc(Nc3cc(NC(=O)C4CC4)ncc3C(=O)CC)c2OC)cc1P(=O)(CC)CC` [Compound B33], the inhibition at 1 µM on TYK2 was determined as 86%. The molecule further had a Kd on TYK2 JH2 of 56 pM.
For the molecule `[2H]C([2H])([2H])n1nc(-c2cccc(Nc3cc(NC(=O)C4CC4)ncc3C(=O)CC)c2OC)cc1P(=O)(CC)CC` [Compound B34], at TYK2, the inhibition at 1 µM came out at 87%. In addition, on TYK2 JH2, the Kd was 44 pM.
In the case of `[2H]C([2H])([2H])n1nc(-c2ccnc(Nc3cc(NC(=O)C4CC4)ncc3C(=O)CC)c2OC)cc1P(C)(C)=O` [Compound B35], the inhibition at 1 µM on TYK2 was 60%. The same molecule registered a dissociation constant (Kd) at TYK2 JH2 of 25 pM.
For `CCC(=O)c1cnc(NC(=O)C2CC2)cc1Nc1nccc(-c2ncc(P(=O)(CC)CC)cn2)c1OC` [Compound B36], on TYK2, the inhibition at 1 µM stood at 75%.
For the molecule `CNC(=O)c1nnc(NC(=O)C2CC2)cc1Nc1cccc(-c2cc(P(C)(C)=O)n(C)n2)c1OC` [Compound B39], at TYK2, the inhibition at 0.1 µM was found to be 34% and the inhibition at 1 µM was 80%. The Kd at TYK2 JH2 came out at 6.4 pM.
Consider `CNC(=O)c1nnc(NC(=O)C2CC2)cc1Nc1cccc(-c2ncc(P(C)(C)=O)cn2)c1OC` [Compound B40], for which, on TYK2, the inhibition at 0.1 µM came to 33% and the inhibition at 1 µM was 58%.
Regarding `[2H]C([2H])([2H])NC(=O)c1nnc(NC(=O)C2CC2)cc1Nc1cccc(-c2cc(P(C)(C)=O)n(C)n2)c1OC` [Compound B42], the inhibition at 1 µM at TYK2 is 65%.
As to `CCP(=O)(CC)c1cc(-c2cccc(Nc3cc(NC(=O)C4CC4)nnc3C(=O)NC)c2OC)nn1C` [Compound B43], the inhibition at 1 µM on TYK2 came out at 84%.
Turning to `CNC(=O)c1nnc(NC(=O)C2CC2)cc1Nc1cccc(-c2cc(P(=O)(C3CC3)C3CC3)n(C)n2)c1OC` [Compound B44], on TYK2, the inhibition at 1 µM was determined as 81%.
In the case of `[2H]C([2H])([2H])NC(=O)c1nnc(NC(=O)C2CC2)cc1Nc1cccc(-c2cc(P(=O)(CC)CC)n(C)n2)c1OC` [Compound B45], on TYK2, the inhibition at 0.05 µM stood at 44%, the inhibition at 0.2 µM was 83% and the inhibition at 1 µM was found to be 95%.
As to `CCC(=O)c1cnc(NC(=O)C2CC2)cc1Nc1ncnc(-c2cc(P(=O)(C3CC3)C3CC3)n(C)n2)c1OC` [Compound B46, N-(4-((6-(5-(dicyclopropylphosphoryl)-1-methyl-1H-pyrazol-3-yl)-5-methoxypyrimidin-4-yl)amino)-5-propionylpyridin-2-yl)cyclopropanecarboxamide], on TYK2, the inhibition at 0.05 µM stood at 70%, the inhibition at 0.2 µM was 88% and the inhibition at 1 µM came to 96%.
